Experimental data as given in patent US7736537B1, “Replacement solvents having improved properties for refrigeration flushes” (Mainstream Engineering Corp., priority 2008, dated 2010).
Like-named read-outs stand apart in the source and are kept apart here.

Legend:
[1] = pure solvent; cited from earlier work
[2] = Source text: Parameters such as the lethal dose 50 (LD50), lethal concentration 50 (LC50), cardiac sensitization, skin irritation, and mutagenicity (e.g., via the Ames test) can be used as toxicity metrics. The LDn or LCn abbreviations, where n is the percent lethality, are used for the dose of a toxicant lethal to n % of a test population. […] Cardiac sensitization is a measure of the ability of a compound to cause cardiac arrhythmia under stress.
The property modification components are chosen from a list of potential replacement solvents. These compounds included halogenated compounds such as halogenated acetates, alcohols, alkanes, cycloalkanes, alkenes, cycloalkenes, amines, anhydrides, aromatics, carbonyls, diones, esters, ethers, heterocyclics and ketones.

[3] = cited from earlier work; for BP: Table 1
[4] = solubility parameter, Table 1; cited from earlier work
[5] = Test 2 - Moisture retention (Karl Fischer titration); format: physicochemical
Procedure: Each solvent (5 g) was put into a small vial and the individual samples were titrated with a Karl Fischer titration machine to evaluate how much moisture was contained in each. De-ionized water (1 g) was then added to each vial, which ensured that each sample was saturated with moisture. The samples were then agitated and allowed to phase separate. Karl Fischer analysis of the organic layer of each solvent was performed after phase separation was complete.
The difference between the saturated moisture percent and the starting sample moisture percent is the amount that was absorbed by the solvent.

[6] = Test 3 - Acid retention (titration before and after concentrated HCl); format: physicochemical
Procedure: In order to measure the ability of each solvent to absorb acid, a titration of each solvent before and after concentrated HCl addition was performed. The difference between how much titrant was needed to neutralize the solvent after the addition of acid and the amount of titrant needed to neutralize the initial solvent was a simple way to determine how much acid was absorbed by each solvent. Mixture A advantageously absorbed more mineral acid than any of the three comparative solvents.

[7] = Test 4 - Oil retention (oil saturation point); format: physicochemical; conditions: oil added to 4.5 g solvent until phase separation
Procedure: An oil absorption test was performed on Mixtures A, B, C, D and the three comparative solvents to see if there was a saturation point associated with any of the solvents. A 4.5 g sample of each solvent was put into a vial and oil was added to each until a phase separation or other noticeable fluid property change took place. […]. Rx-11 and oil phase separated after 0.45 g, or 10 mass % of oil were added.

[8] = cardiac sensitization relative to CFC-113

| Structure (SMILES) | CS/CS113 [2, 8] | BP [3] [C.] | SP [4] | other results |
| --- | --- | --- | --- | --- |
| CC(C)CBr [1-bromo-2-methylpropane] |  |  |  | flash point [1]: 11 °C |
| FC(F)(F)O/C=C/OC(F)(F)Br [(E)-1-(bromodifluoromethoxy)-2-(trifluoromethoxy)ethene] | 144.9 | 76.5 | 7.79 (cal/cm^3)^1/2 |  |
| FC(F)(F)/C=C/OC(F)(F)Br [(E)-1-(bromodifluoromethoxy)-2-(trifluoromethyl)ethene] | 54.3 | 57.8 | 7.73 (cal/cm^3)^1/2 |  |
| FC(F)(F)/C=C/C(F)(F)Br [(E)-1-bromo-1,1,4,4,4-pentafluoro-2-butene] | 36.6 | 40.0 | 7.37 (cal/cm^3)^1/2 |  |
| F/C(=C(/F)C(F)(F)Br)C(F)(F)F [(E)-1-bromo-perfluoro-2-butene] | 41.4 | 48.0 | 6.85 (cal/cm^3)^1/2 |  |
| FC(F)(F)/C(Cl)=C(\Cl)C(F)(F)F [(E)-2,3-dichlorohexafluoro-2-butene] | 72.4 | 68.5 | 7.15 (cal/cm^3)^1/2 |  |
| F/C(=C(/Br)C(F)(F)F)C(F)(F)F [(E)-2-bromo-1,1,1,3,4,4,4-heptafluoro-2-butene] | 48.6 | 49.0 | 6.82 (cal/cm^3)^1/2 |  |
| FC(F)(F)/C=C(/Br)C(F)(F)F [(E)-2-bromo-1,1,1,4,4,4-hexafluoro-2-butene] | 42.7 | 45.1 | 7.06 (cal/cm^3)^1/2 |  |
| F/C(OC(F)(F)Br)=C(\F)C(F)(F)F [(Z)-1-(bromodifluoromethoxy)-1,2,3,3,3-pentafluoro-1-propene] | 70.1 | 65.2 | 7.22 (cal/cm^3)^1/2 |  |
| FC(F)(F)O/C=C\OC(F)(F)Br [(Z)-1-(bromodifluoromethoxy)-2-(trifluoromethoxy)ethene] | 144.9 | 76.5 | 7.79 (cal/cm^3)^1/2 |  |
| FC(F)(F)/C=C\OC(F)(F)Br [(Z)-1-(bromodifluoromethoxy)-2-(trifluoromethyl)ethene] | 54.3 | 57.8 | 7.63 (cal/cm^3)^1/2 |  |
| FC(F)(F)/C=C\C(F)(F)Br [(Z)-1-bromo-1,1,4,4,4-pentafluoro-2-butene] | 36.6 | 40.0 | 7.25 (cal/cm^3)^1/2 |  |
| F/C(Br)=C(/F)OCC(F)(F)F [(Z)-1-bromo-1,2-difluoro-2-(2,2,2-trifluoroethoxy)-ethene] | 52.7 | 87.9 | 7.61 (cal/cm^3)^1/2 |  |
| F/C(=C(\F)C(F)(F)Br)C(F)(F)F [(Z)-1-bromo-perfluoro-2-butene] | 41.4 | 48.0 | 6.78 (cal/cm^3)^1/2 |  |
| F/C(=C(\Br)C(F)(F)F)C(F)(F)F [(Z)-2-bromo-1,1,1,3,4,4,4-heptafluoro-2-butene] | 48.6 | 49.0 | 6.79 (cal/cm^3)^1/2 |  |
| Fc1c(F)c(F)c(C(F)(F)Br)c(F)c1F [(bromodifluoromethyl)-pentafluorobenzene] | 28.2 | 153.3 | 7.63 (cal/cm^3)^1/2 |  |
| FC(Cl)(Cl)Cl [CFC-11, trichlorofluoromethane] |  |  |  | Saturated % ([5]; moisture in organic layer after 1 g water added to 5 g solvent): 0.007%; Starting % ([5]; moisture in solvent before water addition): 0.000%; Acid Number after acid ([6]; after concentrated HCl addition): 18 mg/L; Acid Number before acid ([6]; before concentrated HCl addition): 9 mg/L; Acid Absorbed ([6]; difference after minus before acid): 9 mg/L; boiling point [3]: 47.6 °C; saturation point for oil [7]: no saturation point |

| Structure (SMILES) | CS/CS113 [2, 8] | BP [3] [C.] | SP [4] | other results |
| --- | --- | --- | --- | --- |
| CCO [Ethanol, ethanol] |  |  |  | flash point [1]: 55 ° F. |
| FC(F)(F)COCC(F)(F)F [bis(2,2,2-trifluoroethyl)ether] | 109.2 | 62.5 | 7.32 (cal/cm^3)^1/2 |  |
| FC(F)OC(F)(F)C(F)(F)OC(F)F [bis(difluoromethoxy)-tetrafluoroethane] | 362.3 | 58.0 | 7.50 (cal/cm^3)^1/2 |  |
| C=C(C)[C@H]1CC=C(C)CC1 [d-limonene] |  |  |  | flash point [1]: around 120 ° F. |
| COCC(C)OCC(C)OC (stereo not drawn) [dipropyleneglycol dimethylether] |  |  |  | flash point [1]: 149 ° F. |
| CCOC(F)(F)C(F)(F)C(F)(F)C(F)(F)F [ethyl-perfluorobutyl ether] | 69.0 | 73.0 | 6.85 (cal/cm^3)^1/2 |  |
| FCOC(C(F)(F)F)C(F)(F)F [fluoromethyl 2,2,2-trifluoro-1-(trifluoromethyl)ethyl ether, reference compound] | 103.0 | 59.0 | 7.10 (cal/cm^3)^1/2 |  |
| FC(OC(F)(F)C(F)(F)C(F)(F)F)C(F)(F)F (stereo not drawn) [heptafluoropropyl 1,2,2,2-tetrafluoroethyl ether] | 195.7 | 41.0 | 6.62 (cal/cm^3)^1/2 |  |
| CC(C)O [isopropyl alcohol] |  |  |  | flash point [1]: 54 ° F. |
| COC(C(F)(F)F)C(F)(F)F [methyl 2,2,2-trifluroethyl-1-(trifluoromethyl)ether] | 107.3 | 50.8 | 7.26 (cal/cm^3)^1/2 |  |
| CC(=O)C(F)(F)C(F)(F)C(F)(F)F [methyl heptafluoropropyl ketone] | 25.4 | 63.5 | 7.32 (cal/cm^3)^1/2 |  |
| COC(=O)C(F)(F)C(F)(F)F [methyl pentafluoropropanoate] | 27.0 | 59.5 | 7.77 (cal/cm^3)^1/2 |  |
| COC(F)(F)C(F)(F)C(F)(F)C(F)(F)F [methyl perfluorobutyl ether] | 53.5 | 51.0 | 6.75 (cal/cm^3)^1/2 |  |
| FC(F)(F)C(F)(F)C(F)(F)C(F)(F)C1(F)OC(F)(F)C(F)(F)C1(F)F (stereo not drawn) [perfluoro-2-butyltetrahydrofuran] | 65.4 | 103.0 | 6.94 (cal/cm^3)^1/2 |  |
| FC(F)(F)C(F)(F)C(F)(F)C(F)(F)OC(F)(F)C(F)(F)C(F)(F)C(F)(F)F [perfluorodibutyl ether] | 896.2 | 110.1 | 6.65 (cal/cm^3)^1/2 |  |
| Fc1c(F)c(F)c(C(F)(F)F)c(F)c1F [perfluorotoluene] | 64.0 | 104.0 | 7.70 (cal/cm^3)^1/2 |  |
| O=C(OC(=O)C(F)(F)F)C(F)(F)F [trifluoroacetic anhydride] |  | 40.2 | 7.29 (cal/cm^3)^1/2 | CS/CS113 [2]: 236.9 |
